The nature of series [1]: microPET imaging of U87MG tumor xenografts in mice. Type of series: in vivo, nude mice. Conditions: nude, mouse, iv, total radioactivity.
Another series relates to U87MG tumor xenografts. As to the kind of experiment: microPET imaging of U87MG tumor xenografts in mice. The format is in vivo, nude mice.
The mark [2] stands for this setting: tumor versus muscle (background).

Broadly, the tissue uptake is the percentage of the injected dose found per gram of tissue. As to `N=C(N)NCCC[C@@H]1NC(=O)[C@H](CCCCNC(=O)CC[C@H](NC(=O)COCCOCCOCCNC(=O)[C@@H]2CSC(c3nc4ccc(OCCF)cc4s3)=N2)C(=O)NCCCC[C@@H]2NC(=O)[C@@H](Cc3ccc(O)cc3)NC(=O)[C@H](CC(=O)O)NC(=O)CNC(=O)[C@H](CCCNC(=N)N)NC2=O)NC(=O)[C@@H](Cc2ccc(O)cc2)NC(=O)[C@H](CC(=O)O)NC(=O)CNC1=O` [[^18F]CBTRGD2], the tissue uptake at 0.5 h in series [1] (kidney, 20 mg/kg) was determined as 2.76 ± 0.85 %ID/g; in series [1] (kidney), 5.46 ± 1.1 %ID/g; in series [1] (liver, 20 mg/kg) it was 1.34 ± 0.06 %ID/g; in series [1] (liver), 3.64 ± 0.76 %ID/g; in series [1] (tumor, 20 mg/kg), 1.62 ± 0.1 %ID/g. Also, the tissue uptake at 1 h came out at 1.26 ± 0.23 %ID/g in series [1] (kidney, 20 mg/kg); 3.99 ± 1.08 %ID/g in series [1] (kidney); 0.7 ± 0.08 %ID/g in series [1] (liver, 20 mg/kg); 2.84 ± 0.76 %ID/g in series [1] (liver); 1.26 ± 0.13 %ID/g in series [1] (tumor, 20 mg/kg); 4.25 ± 0.82 %ID/g in series [1] (tumor). Besides, the tissue uptake at 2 h in series [1] (kidney, 20 mg/kg) was determined as 0.81 ± 0.04 %ID/g; in series [1] (kidney), 2.26 ± 0.67 %ID/g; in series [1] (liver, 20 mg/kg), 0.32 ± 0.01 %ID/g; in series [1] (liver), 2.15 ± 0.53 %ID/g; in series [1] (tumor, 20 mg/kg), 0.49 ± 0.02 %ID/g; in series [1] (tumor), 3.35 ± 0.71 %ID/g. In addition, the tissue to tissue ratio at 0.5 h in series [1] (setting [2]) was 4.5 ± 0.83. Further, the tissue to tissue ratio at 1 h in series [1] (setting [2]) worked out at 5.4 ± 0.72. In series [1] (setting [2]), the tissue to tissue ratio at 2 h was 6.3 ± 1.1. Further, the “specific tumor uptake higher than that of [18F]FPPRGD2” value in the series with U87MG tumor xenografts (30 min, comparison in the same mice (Fig S5, Table S1)) is 50%. In the series with U87MG tumor xenografts (comparison in the same mice), the “uptakes in organs such as liver and kidney compared with [18F]FPPRGD2” value is “higher”.

These data come from publication PMC3447118 (Bioconjugate chemistry, 2012).
